Results on 2 compounds are retold here after paper PMC9934367, “Functional impact of subunit composition and compensation on Drosophila melanogaster nicotinic receptors–targets of neonicotinoids” (PLOS Genetics, 2023).

Broadly, the pEC50 is the EC50 on a negative log10 scale, so that one unit is a factor of ten.

One assay has as its target T1, Dα1/Dα3/Dβ1 nAChR (Drosophila melanogaster, UniProt P04755+P09478+Q9W3G6).
T1 construct: Dα1 (NP_524481); Dβ1 (NP_523927); expressed in transfected cells; host or cells: Xenopus laevis oocytes (cRNA injection)
Briefly: cell-based. On the set-up: species or system D. melanogaster. To be noted: mean ± standard error (n = 5). How it is done: (§1) cDNAs of the nAChR subunits and co-factors were cloned into pcDNA3.1 (+) vector (Thermo Fisher Scientific). The accession numbers of the nAChR subunits and cofactors are as follows: Dα1 (NP_524481), Dα2 (NP_524482), Dα3 (NP_525079), Dα4 (CAB77445), Dβ1 (NP_523927), Dβ2 (NP_524483), Dβ3 (NP_525098), DmRIC-3 (CAP16647), DmUNC-50 (NP_649813), and DmTMX3 (NP_648847). cRNAs were prepared using the mMESSAGE mMACHINE T7 ULTRA Transcription Kit (Thermo Fisher Scientific, #AM1345) according to the manual with the cDNA template which was cut with appropriate restriction enzymes at the 3’ end of the cDNA.
(§2) We minimised the use of X. laevis according to the UK Animals (Scientific Procedures) Act, 1986. […] Oocytes were defolliculated after collagenase treatment in Ca^2+-free standard oocyte saline (Ca^2+-free SOS). cRNAs of the nAChR subunits and co-factors mixed at a concentration of 0.1 mg/mL was injected into oocytes at a volume of 50 nL. Then the oocytes were incubated in the incubation medium (SOS supplemented with sodium pyruvate (Nacalai Tesque, #13058–12), penicillin-streptomycin (MilliporeSigma, #P4333), gentamycin (Nacalai Tesque, #16672–04), and 4% horse serum (Thermo Fisher Scientific, #26050–070) for 3−4 days prior to electrophysiology.
(§3) Each defolliculated X. laevis oocyte was secured in a Perspex recording chamber and perfused with the standard oocyte saline (SOS) containing 0.5 μM atropine (SOSA) at a flow rate of 7−10 mL/min [48]. Two glass electrodes filled with 2 M KCl were impaled into each oocyte and the membrane potential was clamped at -100 mV. […] The peak amplitude of the response was measured and analysed by pCLAMP (Molecular Devices, USA).
(§4) Y=Imax/1+10^(logEC50‐X)nH
(§5) Where Y is the normalised response, X is log[ligand (M)], EC50 is the half maximal concentration (M), Imax is the maximum normalised response and nH is the Hill coefficient.

A further assay concerns the target T2, Dα1/Dα2/Dα3/Dβ1 nAChR (Drosophila melanogaster, UniProt P04755+P09478+P17644+Q9W3G6).
T2 construct: Dα1 (NP_524481); Dα2 (NP_524482); Dβ1 (NP_523927); expressed in transfected cells; host or cells: Xenopus laevis oocytes (cRNA injection)
Briefly: cell-based. On the set-up: species or system D. melanogaster. Conditions: mean ± standard error (n = 5). The method, then: as §1, §2, §3, §4, §5

The next assay addresses T3, Dα1/Dα3/Dβ1/Dβ2 nAChR (Drosophila melanogaster, UniProt P04755+P09478+P25162+Q9W3G6).
T3 construct: Dα1 (NP_524481); Dβ1 (NP_523927); Dβ2 (NP_524483); expressed in transfected cells; host or cells: Xenopus laevis oocytes (cRNA injection)
Briefly: cell-based. Conditions: mean ± standard error (n = 5). Set-up: species or system D. melanogaster. How it is done: as §1, §2, §3, §4, §5

In the next assay the target is T4, Dα2/Dα3/Dβ1/Dβ2 nAChR (Drosophila melanogaster, UniProt P04755+P17644+P25162+Q9W3G6).
T4 construct: Dα2 (NP_524482); Dβ1 (NP_523927); Dβ2 (NP_524483); expressed in transfected cells; host or cells: Xenopus laevis oocytes (cRNA injection)
Briefly: Voltage-clamp electrophysiology, nAChR expressed in X. laevis oocytes. The format is cell-based, D. melanogaster. To be noted: mean ± standard error (n = 5). How it is done:
as §1, §2, §3, §4, §5

The next assay has as its target T5, Dα1/Dβ1/Dβ2 nAChR (Drosophila melanogaster, UniProt P04755+P09478+P25162).
T5 construct: Dα1 (NP_524481); Dβ1 (NP_523927); Dβ2 (NP_524483); expressed in transfected cells; host or cells: Xenopus laevis oocytes (cRNA injection)
Described as above. The format is cell-based, D. melanogaster. To be noted: for Imax: mean ± standard error (n = 5). The method, then: as §1, §2, §3, §4, §5

Assay [1] relates to T6, Dα1/Dα2/Dα3/Dβ1/Dβ2 nAChR.
T6 construct: Dα1 (NP_524481); Dα2 (NP_524482); Dβ1 (NP_523927); Dβ2 (NP_524483); expressed in transfected cells; host or cells: Xenopus laevis oocytes (cRNA injection)
The description is as above. The format is cell-based, D. melanogaster. To be noted: mean ± standard error (n = 5). The method, then: as §1, §2, §3, §4, §5

A further assay concerns the target T7, Dα1/Dα2/Dβ1 nAChR (Drosophila melanogaster, UniProt P04755+P09478+P17644).
T7 construct: Dα1 (NP_524481); Dα2 (NP_524482); Dβ1 (NP_523927); expressed in transfected cells; host or cells: Xenopus laevis oocytes (cRNA injection)
The assay is described as above. It counts as cell-based, D. melanogaster. Conditions: mean ± standard error (n = 5). How it is done:
as §1, §2, §3, §4, §5

The target in another assay is T8, Dα1/Dα2/Dβ1/Dβ2 nAChR (Drosophila melanogaster, UniProt P04755+P09478+P17644+P25162).
T8 construct: Dα1 (NP_524481); Dα2 (NP_524482); Dβ1 (NP_523927); Dβ2 (NP_524483); expressed in transfected cells; host or cells: Xenopus laevis oocytes (cRNA injection)
The assay is described as above. It counts as cell-based, D. melanogaster. To be noted: mean ± standard error (n = 5). How it is done:
as §1, §2, §3, §4, §5

For another assay, the target named is T9, Dα2/Dα3/Dβ1 nAChR (Drosophila melanogaster, UniProt P04755+P17644+Q9W3G6).
T9 construct: Dα2 (NP_524482); Dβ1 (NP_523927); expressed in transfected cells; host or cells: Xenopus laevis oocytes (cRNA injection)
The description is as above. The format is cell-based, D. melanogaster. Conditions: Dα2/Dα3/Dβ1 nAChR, mean ± standard error (n = 5). How it is done:
as §1, §2, §3, §4, §5

A further assay concerns the target T10, Dα1/Dβ1 nAChR (Drosophila melanogaster, UniProt P04755+P09478).
T10 construct: Dα1 (NP_524481); Dβ1 (NP_523927); expressed in transfected cells; host or cells: Xenopus laevis oocytes (cRNA injection)
The description is as above. It counts as cell-based, D. melanogaster. Conditions: mean ± standard error (n = 5). The method, then: as §1, §2, §3, §4, §5

Assay [2] deals with T11, Dα1/Dα3/Dβ1/Dβ2/Dβ3 nAChR.
T11 construct: Dα1 (NP_524481); Dβ1 (NP_523927); Dβ2 (NP_524483); expressed in transfected cells; host or cells: Xenopus laevis oocytes (cRNA injection)
The assay is described as above. It counts as cell-based, D. melanogaster. To be noted: mean ± standard error (n = 5). How it is done: as §1, §2, §3, §4, §5

In assay [3] the target is T12, Dα2/Dα3/Dβ1/Dβ2/Dβ3 nAChR.
T12 construct: Dα2 (NP_524482); Dβ1 (NP_523927); Dβ2 (NP_524483); expressed in transfected cells; host or cells: Xenopus laevis oocytes (cRNA injection)
The description is as above. The format is cell-based, D. melanogaster. Conditions: mean ± standard error (n = 5). How it is done:
as §1, §2, §3, §4, §5

For assay [4], the target named is T13, Dα1/Dα2/Dβ1/Dβ2/Dβ3 nAChR.
T13 construct: Dα1 (NP_524481); Dα2 (NP_524482); Dβ1 (NP_523927); Dβ2 (NP_524483); expressed in transfected cells; host or cells: Xenopus laevis oocytes (cRNA injection)
The description is as above. The format is cell-based, D. melanogaster. To be noted: mean ± standard error (n = 5); for Imax: normalised to maximum ACh response. How it is done:
as §1, §2, §3, §4, §5

The mark [5] stands for this setting: normalised to maximum ACh response.

SMILES strings stand for the structures.

For `CC(=O)OCC[N+](C)(C)C` [ACh, acetylcholine], the Imax (on Dα1/Dα3/Dβ1 nAChR (efficacy); on Dα1/Dα2/Dα3/Dβ1 nAChR (efficacy); on Dα1/Dα3/Dβ1/Dβ2 nAChR (efficacy); on Dα2/Dα3/Dβ1/Dβ2 nAChR (efficacy); at Dα1/Dβ1/Dβ2 nAChR (efficacy); in assay [1] (efficacy)) was 1 each time. For the same compound, the Imax at Dα1/Dα2/Dβ1 nAChR (efficacy), at Dα1/Dα2/Dβ1/Dβ2 nAChR (efficacy), at Dα2/Dα3/Dβ1 nAChR (efficacy) and on Dα1/Dβ1 nAChR (efficacy) was 1 in each case.

For the compound `CN/C(=N\[N+](=O)[O-])NCc1cnc(Cl)s1` [Clothianidin, clothianidin], the Imax at Dα1/Dα3/Dβ1 nAChR (efficacy) is given as 0.627; at Dα1/Dα3/Dβ1 nAChR (setting [5]), 0.627 ± 0.025; on Dα1/Dα2/Dα3/Dβ1 nAChR (efficacy) it was 0.817; at Dα1/Dα2/Dα3/Dβ1 nAChR (setting [5]), 0.817 ± 0.024; on Dα1/Dα3/Dβ1/Dβ2 nAChR (efficacy), 0.684; at Dα1/Dα3/Dβ1/Dβ2 nAChR (setting [5]) it was 0.684 ± 0.022. Moreover, the Imax is 0.531 ± 0.026 in assay [2] (setting [5]); 0.634 on Dα2/Dα3/Dβ1/Dβ2 nAChR (efficacy); 0.634 ± 0.020 at Dα2/Dα3/Dβ1/Dβ2 nAChR (setting [5]); 0.360 at Dα1/Dβ1/Dβ2 nAChR (efficacy); 0.360 ± 0.016 at Dα1/Dβ1/Dβ2 nAChR (setting [5]); 0.695 ± 0.014 in assay [3] (setting [5]). The Imax in [1] (efficacy) is reported as 0.812; in [1] (setting [5]), 0.812 ± 0.019; in assay [1] (normalised to maximum ACh response, listed as clothianidin), 0.812; on Dα1/Dα2/Dβ1 nAChR (efficacy), 0.699; at Dα1/Dα2/Dβ1 nAChR (setting [5]), 0.699 ± 0.034; on Dα1/Dα2/Dβ1/Dβ2 nAChR (efficacy) it was 0.800. Besides, the Imax on Dα1/Dα2/Dβ1/Dβ2 nAChR (setting [5]) was 0.800 ± 0.033; at Dα2/Dα3/Dβ1 nAChR (setting [5]), 0.882 ± 0.076; at Dα2/Dα3/Dβ1 nAChR (efficacy), 0.882; on Dα1/Dβ1 nAChR (efficacy), 0.508; at Dα1/Dβ1 nAChR (setting [5]) it was 0.508 ± 0.015; in [4], 0.974 ± 0.041. This compound displayed an Imax in [4] (listed as clothianidin) of 0.974. In addition, the EC50 is 0.0631 µM on Dα1/Dα3/Dβ1 nAChR (read-out: pEC50 (converted)); 0.282 µM at Dα1/Dα2/Dα3/Dβ1 nAChR; 0.0398 µM on Dα1/Dα3/Dβ1/Dβ2 nAChR; 0.0513 µM at Dα2/Dα3/Dβ1/Dβ2 nAChR; 0.229 µM on Dα1/Dβ1/Dβ2 nAChR (read-out: EC50); 8.51 µM on Dα1/Dα2/Dβ1 nAChR (read-out: pEC50 (converted)). The EC50 on Dα1/Dα2/Dβ1/Dβ2 nAChR was 0.49 µM; at Dα2/Dα3/Dβ1 nAChR it was 0.155 µM; on Dα1/Dβ1 nAChR, 0.0741 µM. Besides, the pEC50 in assay [2] was determined as 7.60 ± 0.12; in assay [3] it was 7.46 ± 0.06; in assay [1], 6.59 ± 0.07; in [4], 5.67 ± 0.11.
